# Test system: ornithine decarboxylase (ODC)
# Experiment: ODC assay: inhibition of TPA induction of ornithine decarboxylase
# Assay type: in vivo
# Excerpt: The retinoic acid-like activity of these compounds is confirmed through the classic measure of retinoic acid activity involving the effects of retinoic acid on ornithine decarboxylase. The original work on the correlation between retinoic acid and decrease in cell proliferation was done by Verma & Boutwell, Cancer Research, 1977, 37,2196-2201. That reference discloses that ornithine decarboxylase (ODC) activity increased precedent to polyamine biosynthesis. It has been established elsewhere that increases in polyamine synthesis can be correlated or associated with cellular proliferation. Thus, if ODC activity could be inhibited, cell hyperproliferation could be modulated. Although all cases for ODC activity increases are unknown, it is known that 12-0-tetradecanoylphorbol-13-acetate (TPA) induces ODC activity. Retinoic acid inhibits this induction of ODC activity by TPA. […] Activity of exemplary compounds of the present invention in the above-described ODC assay is disclosed in Table 2 which provides either […] (or other measured per cent inhibition at the indicated concentration) for the respective exemplary compound.
structure (smiles),measurement,setting,value
"CC(C)(C)c1ccc(C#Cc2ccc(C(=O)O)cn2)cc1O [Compound 20, 6-[2-[[2-t-Butyl-1-hydroxy]-5-phenyl]ethyn-1-yl]nicotinic acid]",% of inhib,conc 100,64%
"O=C(O)c1ccc(C#Cc2ccc(C34CC5CC(CC(C5)C3)C4)c(O)c2)nc1 [Compound 23, 6-[2-[[2-(1-adamantyl)-1-hydroxy]-5-phenyl]-ethyn-1-yl]nicotinic acid]",% of inhib,conc 300,55%
